Values belong to the compound of their own block, whether it stands above or below them. Non-standard residues stand in square brackets, D forms with d. Residues, ends and D or L forms follow the SMILES beside them. *: point of attachment. Cbz = O=C(OCc1ccccc1)*; Bn = c1ccc(C*)cc1
Tests used:
[1] = biological target: Protein farnesyltransferase (Bos taurus, UniProt P29702+P49355); experiment: Activity against bovine Farnesyltransferase; format: protein-complex assay
[2] = biological target: Protein farnesyltransferase (Mus musculus) (UniProt Q61239+Q8K2I1); experiment: (§1) Inhibition of Ras-processing in H-Ras transformed NIH3T3 fibroblasts; format: functional, cell-based
NIH3T3 [3] = experiment: Inhibitory activity against Ha-Ras-transformed NIH3T3 cells; format: functional, Mus musculus
[4] = biological target: T1, Protein farnesyltransferase (Mus musculus, UniProt Q61239+Q8K2I1); experiment: Inhibition of Ras processing; format: functional
[5] = biological target: Geranylgeranyl transferase type I (Homo sapiens, UniProt P49354+P53609); experiment: (§2) Activity against Geranylgeranyl transferase type I; format: protein-complex assay
Mus musculus = species: Mus musculus; experiment: Concentration causing regression of MMTV-v-Ras mice bearing palpable tumors; format: functional, organism-based
[6] = biological target: T2, Protein farnesyltransferase (Homo sapiens, UniProt P49354+P49356); experiment: Activity against human Farnesyltransferase; format: protein-complex assay
Farnesyltransferase = biological target: T3, Farnesyltransferase (Saccharomyces cerevisiae S288c, UniProt P22007+P29703); experiment: Activity against yeast Farnesyltransferase; format: protein-complex assay
T3 sequence (P29703 whole entry): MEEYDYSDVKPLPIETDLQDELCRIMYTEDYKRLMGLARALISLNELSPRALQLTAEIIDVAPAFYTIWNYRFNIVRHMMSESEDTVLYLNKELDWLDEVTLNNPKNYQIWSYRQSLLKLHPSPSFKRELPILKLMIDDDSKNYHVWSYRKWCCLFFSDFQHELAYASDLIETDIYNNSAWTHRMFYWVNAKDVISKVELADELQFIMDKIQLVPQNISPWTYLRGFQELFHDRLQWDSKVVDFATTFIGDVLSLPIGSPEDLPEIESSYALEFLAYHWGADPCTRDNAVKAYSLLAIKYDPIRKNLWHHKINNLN
T3 sequence (P22007 whole entry): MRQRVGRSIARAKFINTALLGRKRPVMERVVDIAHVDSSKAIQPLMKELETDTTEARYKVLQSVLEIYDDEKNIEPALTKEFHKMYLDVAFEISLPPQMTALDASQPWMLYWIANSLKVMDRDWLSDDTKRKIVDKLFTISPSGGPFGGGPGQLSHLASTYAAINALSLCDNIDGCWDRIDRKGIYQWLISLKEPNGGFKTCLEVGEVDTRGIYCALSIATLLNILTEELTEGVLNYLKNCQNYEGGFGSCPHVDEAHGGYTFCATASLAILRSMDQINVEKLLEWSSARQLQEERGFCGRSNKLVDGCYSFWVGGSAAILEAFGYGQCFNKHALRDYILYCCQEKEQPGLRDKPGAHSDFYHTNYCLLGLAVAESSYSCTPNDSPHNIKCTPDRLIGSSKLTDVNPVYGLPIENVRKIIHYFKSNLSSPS

[7] = biological target: T2, Protein farnesyltransferase; experiment: Activity against Farnesyltransferase; format: protein-complex assay
[8] = biological target: T4, Protein farnesyltransferase (Rattus norvegicus, UniProt Q02293+Q04631); experiment: Activity against rat brain Farnesyltransferase
[9] = biological target: T2, Protein farnesyltransferase; experiment: Concentration inhibiting farnesylation of p21ras in Ras-transformed cells; format: functional, cell-based
[10] = biological target: T4, Protein farnesyltransferase; experiment: Activity against rat Farnesyltransferase; format: protein-complex assay
[11] = biological target: T2, Protein farnesyltransferase; experiment: Inhibition of H-Ras Farnesyltransferase; format: protein-complex assay
Homo sapiens = experiment: Inhibition of EJ-1 human bladder carcinoma growth at 100 mg/kg; format: functional
NIH3T3 [12] = experiment: Inhibition in clonogenic assay against H-Ras-transformed NIH3T3 cells; format: functional, cell-based; settings: Mus musculus
[13] = Inhibition of K-Ras-transformed fibrosarcoma growth; format: functional
NIH3T3 [14] = experiment: Inhibition of Ras processing in v-Ras-transformed NIH 3T3 cell growth in soft agar at 50 uM; format: functional, cell-based; settings: Mus musculus
[15] = biological target: T2, Protein farnesyltransferase; experiment: Inhibitory activity against Ras Farnesyltransferase; format: protein-complex assay
[16] = as §2
[17] = biological target: T1, Protein farnesyltransferase; experiment: as §1; format: functional, cell-based
[18] = biological target: T2, Protein farnesyltransferase; experiment: Inhibitory activity against farnesyl pyrophosphate; format: protein-complex assay

IC50 [1]: 240 nM
SMILES: CCC(C)[C@@H](CO[C@@H](Cc1ccccc1)C(=O)N[C@@H](CCS(C)(=O)=O)C(=O)O)NC[C@@H](N)CS (stereo partly specified)

IC50 [1]: 5 nM
IC50 [4]: 500 nM
IC50 [5]: 10000 nM
SMILES: COCC[C@@H]1CN(C(=O)c2cccc3ccccc23)CCN1C[C@H](N)CS
IC75 (NIH3T3 [3]): 40 mg/kg

IC50 [1]: 2200 nM
SMILES: CCC(=O)O[C@H](C[C@@]1(C)[C@H](C)CCC(=O)[C@@H]1C)/C(C)=C/Cc1c(O)cc(C)c(C=O)c1O [CYLINDROL A]

IC50 (Farnesyltransferase): 5000 nM
SMILES: CCCCC(C)/C=C(C)/C=C(\C)CC(=O)NC1=CC(O)(/C=C/C=C/C=C/C(=O)NC2=C(O)CCC2=O)C2OC2C1=O (stereo unspecified)

IC50 [8]: 2000 nM
Concentration [9]: 25 µM
SMILES: CCC(OCCCCNCCSS(=O)(=O)O)C1CCCCC1 (stereo unspecified)

IC50 [10]: 2.8 nM
IC50 [5]: 1400 nM
SMILES: CC(C)(C)[C@H](NC[C@@H](N)CS)C(=O)N1Cc2ccccc2C[C@H]1C(=O)N[C@@H](CCC(N)=O)C(=O)O

IC50 [6]: 100 nM
SMILES: CCC/C=C\c1ccccc1/C=C/C(=O)N[C@H](Cc1ccc(O)cc1)C(=O)N(C)C(Cc1ccc(OC)c(O)c1Cl)C(=O)N(C)[C@@H](Cc1ccccc1)C(=O)OC[C@@H]1NC(=O)CNC1=O (stereo partly specified)

IC50 [11]: 11 nM
SMILES: CSCC[C@H](NC(=O)[C@H](/C=C\[C@@H](/C=C/[C@@H](N)CS)C(C)C)Cc1ccccc1)C(=O)O
inhibition in vivo at 100 mg/kg (Homo sapiens): 60%

IC50 [10]: 0.79 nM
SMILES: CSCC[C@H](NC(=O)[C@@H]1Cc2ccccc2CN1C(=O)[C@@H](NCCc1cnc[nH]1)C(C)C)C(=O)O
IC50 (NIH3T3 [12]): 3800 nM

IC50 [1]: 280 nM
IC50 [5]: > 10000 nM
SMILES: CC[C@@H](C)[C@H](NC[C@@H](NC[C@@H](N)CS)[C@H](C)CC)C(=O)N[C@H]1CCOC1=O
IC50 (NIH3T3 [14]): 50000 nM

IC50 [15]: 33 nM
SMILES: CC(C)=CCC/C(C)=C/CC/C(C)=C/C(=O)NC(CCC(=O)N[C@H](C(=O)N[C@@H](CC(C)C)C(=O)N[C@@H](CO)C(=O)O)C(C)C)C(=O)O (stereo partly specified)

IC50 [16]: > 10000 nM
IC50 [1]: 18 nM
SMILES: CC[C@H](C)[C@H](NC[C@@H](NC[C@@H](N)CS)[C@@H](C)CC)C(=O)N[C@@H](CCO)C(=O)O

IC50 [1]: 240 nM
SMILES: CCC(C)[C@@H](CO[C@@H](Cc1ccccc1)C(=O)N[C@@H](CCS(C)(=O)=O)C(=O)OC)NC[C@@H](N)CS (stereo partly specified)
IC50 (NIH3T3 [14]): 10000 nM

Further lines, the compound ahead of its results:

SMILES: CN(C(=O)[C@@H](Cc1c[nH]cn1)NC(=O)OCc1ccccc1)[C@@H](Cc1ccc(OCc2ccccc2)cc1)C(=O)NCCOCc1ccccc1
Concentration [2]: 2.5 µM

SMILES: CC[C@H](C)[C@@H](CO[C@@H](Cc1ccccc1)C(=O)N[C@@H](CCS(C)(=O)=O)C(=O)OC(C)C)NC[C@@H](N)CS
Concentration (Mus musculus): 40 mg/kg

SMILES: CCC(CC(C)C(=O)O)C(=O)CC/C1=C/C(C)C/C(C)=C/C(C)C(O)C(C)CCC(CCCC/C=C/C(C)CCC(C)OC(=O)CC(CC(=O)O)C(=O)O)OC(=O)CC(C(=O)O)CC(=O)OC1 (stereo unspecified) [ACTINOPLANIC ACID A]
IC50 [6]: 230 nM

SMILES: C[C@@H](NC(=O)[C@H](Cc1c[nH]c2ccccc12)NC(=O)[C@H](COCc1ccccc1)NC(=O)[C@H](Cc1ccc(OCc2ccccc2)cc1)NC(=O)[C@@H](Cc1c[nH]cn1)NC(=O)OCc1ccccc1)C(N)=O (Cbz-[dH]Y(Bn)S(Bn)W[dA]-NH2)
Concentration [2]: 25 µM
IC50 [7]: 20 nM

SMILES: O=C(N[C@H](Cc1c[nH]cn1)C(=O)N[C@@H](Cc1ccc(OCc2ccccc2)cc1)C(=O)NCCOCc1ccccc1)OCc1ccccc1
Concentration [2]: 5 µM

SMILES: CN1C(=O)[C@]23CC4=CC=C[C@H](O)[C@H]4N2C(=O)[C@@]1(CO)SS3 [GLIOTOXIN]
IC50 [7]: 1100 nM
Concentration [13]: 6.3 mg/kg

SMILES: CCCCCCCCCCCCCC/C(C(=O)O)=C(\C)C(=O)O [CHAETOMELLIC ACID A]
IC50 [6]: 60 nM

SMILES: C[C@@H](NC(=O)[C@H](Cc1c[nH]c2ccccc12)NC(=O)[C@H](COCc1ccccc1)NC(=O)[C@H](Cc1ccc(OCc2ccccc2)cc1)NC(=O)[C@H](Cc1c[nH]cn1)NC(=O)OCc1ccccc1)C(N)=O
IC50 [17]: 420 nM

SMILES: CC(C)=CCC/C(C)=C/CC/C(C)=C/CCP(=O)(O)CP(=O)(O)O
Concentration [2]: 1 µM
Ki [18]: 830 nM
